Test results as given in patent US11459375B2, “Cyclic peptides for the treatment of Graves' disease” (advanceCOR GmbH, priority 2017, dated 2022).
Peptide text beside a SMILES is read from it.

What was measured:
Ad-TSHR-immunized mice = test: anti-TSHR antibody titers in serum of treated Ad-TSHR-immunized mice (3rd generation ELISA, inhibition of M22 binding to TSHR); format: in vivo, BALB/c mice; conditions: 1 mg/kg IV at 4-weekly intervals, after start of therapy despite continuing immunisations
Experimental: The measurements were carried out in Ad-TSHR-immunized mice treated by either 4-weekly injections with vehicle (0.9% NaCl, “Graves' no therapy”, n=25 mice), or administrations of 1 mg/kg body weight of peptide of the invention 836 (12 mice), or of peptide 829 (13 mice), or of TSHR-Fc (18 mice), or of control peptide 835 (13 mice). In addition, age-matched immunologically naïve unimmunized mice (“healthy”, 19 animals) were investigated. Data are represented as mean±SEM. Significance over time was tested by analysis of variance (ANOVA) of groups at given time points, and controlled by ANOVA for repeated measurements within one group, followed by LSD post-hoc testing. *p<0.05, and **p<0.005, compared to the TSHR-immunized group treated with only NaCl (“Graves' no therapy”).
Animals were kept under standard housing conditions (23±2° C., 55±10% RH) in groups of ten animals in GR1800DD cages (Tecniplast®). […] All guidelines for care of animals were respected. Mice received 10^10 plaque-forming units (pfu) of adenovirus carrying the A-subunit of the TSHR gene. […]
(§1) Anti-TSHR autoantibody titers and potency of antibodies to stimulate TSHR-dependent cAMP levels in test cells were determined before start of immunisation (basal value), 56 days after first immunisation, 133 days after first immunisation, and 189 days after first immunisation, and at the end of experiment.

[1] = tested on: immunologically naïve mice; test: tolerability and immunogenicity study in immunologically naive mice; conditions: for clinical findings / tolerability: 1 mg/kg bw IV, monthly administrations for 6 months
Experimental: BALB/c mice were adapted for at least one week to start experiments at the age of 12 weeks. Animals were kept as described before. […] Peptides (either 1 mg/kg body weight or NaCl vehicle control) were given by IV injection into a tail vein of these naïve mice (n=5 per group), and then continued at 4-weekly intervals for 6 months, as described before for the therapeutic study in immunized mice. Serum samples were taken at identical intervals.
1) “3rd generation assay”: Antibodies against TSHR were detected by a commercially available 3rd generation enzyme immunoassay provided by RSR Limited, Avenue Park, Pentwyn, Cardiff, U.K., in which the of the human Graves patient-derived M22 monoclonal antibody and serum antibodies compete for binding sites on immobilized TSHR. […] The assay was performed using 30 μl 1:10 (PBS) diluted serum in at least double determination according to the manufacturer's instructions.

[2] = tested on: CHO cells expressing the human TSHR; test: capacity of serum anti-TSHR antibodies from treated mice to stimulate cAMP in test cells; set-up: species or system BALB/c mice; conditions: serum of in vivo treated Ad-TSHR-immunized mice, 1 mg/kg IV 4-weekly
Experimental: The measurements were carried out in Ad-TSHR-immunized mice treated by either 4-weekly injections with vehicle (0.9% NaCl, “Graves' no therapy”, n=25 mice), or administrations of 1 mg/kg body weight of peptide of the invention 836 (12 mice), or of peptide 829 (13 mice), or TSHR-Fc (18 mice), or of control peptide 835 (13 mice). In addition, age-matched immunologically naïve unimmunized mice (“healthy”, 19 animals) were investigated. Data are represented as mean±SEM. Differences between groups were tested by AVOVA followed by post hoc LSD testing.**p<0.005 compared to the TSHR-immunized group treated with only NaCl (“Graves' no therapy”). […]
as §1, with “experiment. […]” for “experiment.”
2) Thyroid stimulating antibodies in the serum of hyperthyroid mice were analysed by measuring cyclic adenosine monophosphate (cAMP) generation in Chinese hamster ovary (CHO) cells JP2626 expressing the human TSHR (kindly provided by Dr. Gilbert Vassart, Brussels, Belgium). […]

Molecule | time course of anti-TSHR antibody titers (Ad-TSHR-immunized mice) | clinical findings / tolerability [1] | maximum TSHR-dependent cAMP levels induced in test cells by mouse serum [2] | anti-TSHR antibody titers in naive mice ([1]; 1 mg/kg IV monthly, 6 month observation period) | naive mice with anti-TSHR antibody titers above cut-off limit ([1]; 1 mg/kg IV, after 3 administrations)
CC[C@H](C)[C@@H]1NC(=O)[C@H](C(C)C)NC(=O)[C@H]([C@@H](C)O)NC(=O)[C@H](CC(C)C)NC(=O)[C@H](Cc2ccc(O)cc2)NC(=O)[C@H](CCCCN)NC(=O)[C@H](CC(N)=O)NC(=O)[C@H](CCCCN)NC(=O)[C@H](CC(N)=O)NC(=O)[C@H](CC(C)C)NC(=O)[C@H](Cc2ccc(O)cc2)NC(=O)[C@H](C(C)C)NC(=O)[C@H](C)NC(=O)[C@H](CC(=O)O)NC(=O)[C@H](CC(C)C)NC(=O)[C@H](CCCCN)NC(=O)[C@H]([C@@H](C)O)NC(=O)CNC(=O)[C@H](CC(N)=O)NC(=O)[C@H](Cc2ccccc2)NC(=O)[C@H](C)NC(=O)[C@H](Cc2ccc(O)cc2)NC(=O)CNC(=O)[C@H](CC(=O)O)NC1=O [peptide 836] (cyclo(GYAFNGTKLDAVYLNKNKYLTVID)) | no trends for further anti-TSHR titer increases after start of therapy | no pathological clinical findings were observed | – | – | –
SPPCECHQEEDFRVTCKDIQRIPS [peptide 829] | – | – | not significantly different from controls | – | –
TSHR-Fc: fusion protein: first 289 amino acids of human TSH receptor (A-subunit), GGR linker and Fc portion of human IgG2 | no trends for further anti-TSHR titer increases after start of therapy | developed clinical signs of allergy immediately after 4 administrations | not affected | significantly (p<0.001) higher than in cyclic peptide-treated or vehicle-treated control mice | 3 out of 6
